Reference: patent publication US11311560B2, “Cyclic plasmenylethanolamines” (MED-LIFE DISCOVERIES LP, priority 2017, dated 2022)
Several values for one entry are separate records, joined by “and”; a condition that tells them apart may be missing. Equal entries are not always repeated. Entries after “also recorded” stand apart in the source; their conditions may differ.

Key:
Pex7 hypomorph/null mice [1] = assay: Open field test after 4 weeks oral treatment; type: in vivo, mouse
Text: (§1) The Pex7 hypomorph/null model is a hypomorphic (B6;129S6-Pex7^tm2.3Brav/s9) mouse model on a mixed background (C57BL/6NCrl and 129S6/SvEvTac). The hypomorphic allele in Pex7 hypomorph/null was generated by inserting an inverse neo cassette into intron 2 and lox P sites surrounding exon 3. The Pex7 null allele was generated using (B6.C-Tg(cmv-cre)1Cgn/J) mouse. The Pex7 hypomorph/null mouse model has 90% survival, 0.016-0.257% of wild type Pex7 mRNA levels and 20-30% plasmalogen levels Pex7 hypomoprh/null mice (3-4 months); and wild-type animals, males and females included in treatments and behavioral tests. Pex7 hypomorph/null mice were randomly assigned, after a baseline open field test, into 3 treatment groups: PPI-1040, PPI-1011, and vehicle controls, n=6 mice per group). PPI-1011 or PPI-1040 at 50 mg/kg was given by oral gavage 5 days per week (Monday-Friday) for 4 weeks. During the treatment period, animals were weighed weekly and observed for signs of distress. The open field test was performed at the end of treatment. To avoid selection bias, data analysis was performed only at the study end. Animals were sacrificed after a 24-hour post the last dose.
The open field test is a behavioral test used to evaluate the general locomotor activity, exploratory and anxiety-like behaviour of mice in response to a novel environment. The animal is placed inside a custom made square, gray acrylic box measuring 40×40×40 cm and allowed to move freely for 5 minutes while being recorded by an overhead camera (camera model). The footage was analyzed by an automated tracking system (Any-maze Video Tracking Software, Stoelting Co, Wood Dale, Ill., USA), for total distance traveled (meters) & activity (mobility in seconds) time. The total distance traveled is the total distance that animal traveled during the test and the activity measures the amount of time the animal was active during the test.

[2] = In vitro acid stability (pH 1-5, one hour, FI-MS/MS); type: physicochemical
Method: To test the ability of the vinyl ether in PPI-1040 to withstand the acidic nature of the stomach the compound was exposed to a range of acid strengths (pH 1-5). The stability of the vinyl bond was tested by exposing PPI-1040 (formulated as indicated above) to a pH range from 1-5. The pH solutions were made by serial 10-fold dilutions of 1M HCL in HPLC grade water until pH 4 is reached. Pure HPLC grade water was used as the control solution. The final dilution was completed by added a 20 μl aliquot to 200 μl of the PPI-1040 formulation resulting in a pH range from 1-5 (each condition was tested in triplicate). The mixture was vortexed at room temperature for one hour. Following the one hour incubation each solution was re-suspended in ethyl acetate to obtain 10 μl/ml solution which was analyzed using flow injection tandem mass spectrometry (FI-MS/MS) on a API4000™ mass spectrometer (Applied Biosystems) coupled with Agilent 1100 HPLC pump and auto sampler.

Pex7 hypomorph/null mice [3] = assay: 4 weeks oral treatment of Pex7 hypomorph/null animals: plasmalogen levels in plasma and tissues; type: in vivo, mouse; settings: 50 mg/kg oral gavage, 5 days per week
Text: as §1
Tissue samples frozen by submersion in liquid nitrogen were homogenized using the Covaris Cryoprep resulting in a fine powder. The powder was then aliquoted using anti-static polypropylene disposable milligram scoops (TWD Tradewinds) resulting in 4-6 mg of tissue per 1.4 ml Thermo matrix tubes. Weights were recorded and metabolite levels were normalized per mg of tissue. HPLC grade water (50 μl) was added into each tube and samples were snap frozen in liquid nitrogen and then stored at −80° C. until extraction. On the day of the extraction, tissue samples were thawed to room temperate and sonicated for 15 mins in an ice bath before mixing at 2000 rpm for a 5 minute and then adding 600 μL of ethyl acetate. Lipids were extracted into ethyl acetate by mixing at 1750 rpm for 1 hr followed by a 10 min centrifugation at 3500 rpm to obtain a clear ethyl acetate layer. Tissue lipid extracts were diluted into an ethyl acetate stock (brain regions diluted 1:10, peripheral tissues 1:5) containing labeled internal standard [^13C-PlsEtn (C37^13C6H74NO7P). Water (40 μL) was added to the diluted extracts and samples were stirred at 1500 rpm for 1 hr followed by a 2 min centrifugation at 3500 rpm.
Plasma extraction was performed on 20 μL aliquots in 1.4 ml Thermo matrix tubes. Lipids were extracted by adding HPLC grade water (50 μl) and ethyl acetate containing labeled internal standard [^13C-PlsEtn (C37^13C6H74NO7P) at 0.2 μg/mL (500 μL) to each plasma sample and then mixing at 1750 rpm for 1 hr followed by a 2 min centrifugation at 3500 rpm for phase separation.
A 100 μL aliquot of the ethyl acetate layer was analyzed using FI-MS/MS on a API4000™ mass spectrometer (Applied Biosystems) coupled with Agilent 1100 HPLC pump and auto sampler. Each transition was scanned for 50 ms with a total acquisition time per sample of 2 min. ethyl acetate:methanol:water ratio of 80:15:5 at a flow rate of 600 μL/min was used as the mobile phase. All standards and stable isotopes used were >95% pure and manufactured by Med-Life Discoveries LP. All the solvents used above were HPLC grade. All samples were analyzed in triplicate to control for any variation resulting from instrument variability. Stable isotope ratios for each analyte were calculated for all tissue and plasma samples (Table 2).

[4] = 50 mg/kg oral gavage, 5 days per week, 5 minutes test

With `CC/C=C\C/C=C\C/C=C\C/C=C\C/C=C\C/C=C\CCC(=O)OC(CO/C=C\CCCCCCCCCCCCCC)COP1(=O)NCCO1` (stereo not shown) [PPI-1040, 1-(((Z)-hexadec-1-en-1-yl)oxy)-3-((2-oxido-1,3,2-oxazaphospholidin-2-yl)oxy)propan-2-yl (4Z,7Z,10Z,13Z,16Z,19Z)-docosa-4,7,10,13,16,19-hexaenoate] as the compound, how does the “open field: time active” value (Pex7 hypomorph/null mice [1]; [4]) read?
Its value is “significant decrease in activity and normalization of the hyperactive phenotype”.

What about the “open field: total distance traveled” value (Pex7 hypomorph/null mice [1]; [4]) of the same compound?
The value was “significant decrease in activity and normalization of the hyperactive phenotype”.

What about the hyperactivity phenotype (Pex7 hypomorph/null mice [1]; 50 mg/kg oral, p<0.05) of the same compound?
The hyperactivity phenotype was “significant improvement”.

What about the “level of the cyclized (closed ring) form after incubation” value ([2]; aqueous control and pH 1-5, one hour, room temperature) of the same compound?
Its value is “almost undetectable in all samples; also recorded: minimal intact PPI-1040 being observed”.

What about the “cleavage of the sn-1 vinyl-ether bond (loss of sn-1 group)” value (shortened to “cleavage … (loss of sn-1 group)”) ([2]; control and pH 3-5, one hour) of the same compound?
Its value is “minimal loss of the sn-1 group”.

And the “cleavage … (loss of sn-1 group)” value ([2]; pH 1, one hour)?
The value was “overall degradation of the molecule; also recorded: largely degraded”.

And the “stability of open ring form (PlsEtn 16:0/22:6)” value ([2]; pH 1, one hour)?
The value was “very little being detected”.

And the “cleavage … (loss of sn-1 group)” value ([2]; pH 2, one hour)?
The value was “cleavage of the vinyl group is prevalent; also recorded: observed beginning at pH2”.

What about the “stability of open ring form (PlsEtn 16:0/22:6)” value ([2]; pH 2, one hour) of the same compound?
The value was “slight reduction”.

And the “cerebellum tissue plasmalogen levels” value (Pex7 hypomorph/null mice [3])?
The value was “did not show augmentation”.

And the “cortical tissue plasmalogen levels” value (Pex7 hypomorph/null mice [3])?
The value was “did not show augmentation”.

What about the kidney plasmalogen levels (Pex7 hypomorph/null mice [3]) of the same compound?
Its kidney plasmalogen levels is “did not display a clear augmentation in any plasmalogen species; also recorded: did not display a significant level of augmentation in any plasmalogen species”.

And the liver plasmalogen levels (Pex7 hypomorph/null mice [3])?
The liver plasmalogen levels was “increases in 16:0/18:1, 16:0/18:2 and 16:0/22:6 species reaching statistical significance and 16:0/18:1. 16:0/18:2”.

And the lung plasmalogen levels (Pex7 hypomorph/null mice [3])?
Its lung plasmalogen levels is “did not display a clear augmentation in any plasmalogen species; also recorded: did not display a significant level of augmentation in any plasmalogen species”.

What about the “plasma level of the target 16:0/22:6 plasmalogen” value (Pex7 hypomorph/null mice [3]) of the same compound?
Its value is “normalizing the levels of the target 16:0/22:6 plasmalogen”.

And the “plasma levels of other 16:0 plasmalogens (re-organization at sn-2)” value (Pex7 hypomorph/null mice [3])?
The value was “increases in all measured 16:0 plasmalogens with the exception of 16:0/22:4; also recorded: increases in all 16:0 plasmalogens measured except 16:0/22:4”.

And the “plasma plasmalogen levels (all species measured)” value (Pex7 hypomorph/null mice [3])?
The value was “able to augment plasmalogen levels; also recorded: did effectively augment plasmalogen levels”.

And the “plasma plasmalogens containing 18:0 and 18:1 at sn-1” value (Pex7 hypomorph/null mice [3])?
The value was “no augmentation was observed in any of those species”.

What about the “plasmalogen levels in tissues (peripheral and brain)” value (Pex7 hypomorph/null mice [3]) of the same compound?
The value was “augmentation observed in the liver, skeletal muscle and small intestine”.

What about the “skeletal muscle plasmalogen levels” value (Pex7 hypomorph/null mice [3]) of the same compound?
The value was 16:0/20:5, 16:0/22:6 and total 16:0 plasmalogen pool levels statistically increased.

What about the “small intestine plasmalogen levels” value (Pex7 hypomorph/null mice [3]) of the same compound?
The value was 16:0/18:1 and 16:0/18:2 species reaching a statistically significant increase and only 16:0/18:1 and 16:0/18:2 reached significance.

What about the “vinyl-acyl and alkyl-acyl glycerol levels” value (Pex7 hypomorph/null mice [3]) of the same compound?
Its value is “None of the alkyl-acyl or vinyl-acyl glycerol species measured were increased”.
